Results as given in PubChem BioAssay AID2060489 (Molecular Pharmacology Branch, DTP, NCI, 2025).

Tested on: 922993-354-T-J3-PDC complex spheroids, viability
Test: Anticancer human tumor 922993-354-T-J3-PDC patient-derived endometrial carcinoma cell line growth inhibition [GQUAD]
Conditions: for IC50: curve of first compound; for viability, T/C: stronger effect = lower value
Summary of the method: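 Tumor cells were grown as complex spheroids with HUVEC endothelial cells and mesenchymal stem cells as stroma. G-quadruplex stabilizers were combined with targeted agents over half-log dilutions from near the clinical Cmax, or from 10 microM.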

[1] = second compound 0.0316 µM, first compound 0.0316 µM
[2] = second compound 0.0316 µM, first compound 0.316 µM
[3] = second compound 0.1 µM, first compound 0.0316 µM
[4] = second compound 0.1 µM, first compound 0.316 µM
[5] = second compound 0.316 µM, first compound 0.0316 µM
[6] = second compound 0.316 µM, first compound 0.316 µM
[7] = second compound 1 µM, first compound 0.0316 µM
[8] = second compound 1 µM, first compound 0.316 µM
[9] = second compound 3.16 µM, first compound 0.0316 µM
[10] = second compound 3.16 µM, first compound 0.316 µM
[11] = second compound 10 µM, first compound 0.0316 µM
[12] = second compound 10 µM, first compound 0.316 µM
[13] = second compound 0.0316 µM, first compound 0.1 µM
[14] = second compound 0.0316 µM, first compound 1 µM
[15] = second compound 0.0316 µM, first compound 3.16 µM
[16] = second compound 0.0316 µM, first compound 10 µM
[17] = second compound 0.1 µM, first compound 0.1 µM
[18] = second compound 0.1 µM, first compound 1 µM
[19] = second compound 0.1 µM, first compound 3.16 µM
[20] = second compound 0.1 µM, first compound 10 µM
[21] = second compound 0.316 µM, first compound 0.1 µM
[22] = second compound 0.316 µM, first compound 1 µM
[23] = second compound 0.316 µM, first compound 3.16 µM
[24] = second compound 0.316 µM, first compound 10 µM
[25] = second compound 1 µM, first compound 0.1 µM
[26] = second compound 1 µM, first compound 1 µM
[27] = second compound 1 µM, first compound 3.16 µM
[28] = second compound 1 µM, first compound 10 µM
[29] = second compound 3.16 µM, first compound 0.1 µM
[30] = second compound 3.16 µM, first compound 1 µM
[31] = second compound 3.16 µM, first compound 3.16 µM
[32] = second compound 3.16 µM, first compound 10 µM
[33] = second compound 10 µM, first compound 0.1 µM
[34] = second compound 10 µM, first compound 1 µM
[35] = second compound 10 µM, first compound 3.16 µM
[36] = second compound 10 µM, first compound 10 µM
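Further: spheroids exposed to compounds for seven days.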
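Wherever viability, T/C is given: 100% = DMSO vehicle control viability.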

CC[C@@]1(O)C(=O)OCc2c1cc1n(c2=O)Cc2cc3c(CN(C)C)c(O)ccc3nc2-1 + Cc1[nH]c2ccc(F)cc2c1-c1nc2c3cccnc3c3ncccc3c2[nH]1
IC50 (second compound 0.0316 µM): > 0.316 µM | IC50 (second compound 0.1 µM): > 0.316 µM | IC50 (second compound 0.316 µM): > 0.316 µM | IC50 (second compound 1 µM): 0.307 µM | IC50 (second compound 3.16 µM): > 0.316 µM | IC50 (second compound 10 µM): 0.282 µM | viability, T/C (second compound 0.0316 µM, first compound 0.000999 µM): 91.8% | viability, T/C (second compound 0.0316 µM, first compound 0.00316 µM): 95.9% | viability, T/C (second compound 0.0316 µM, first compound 0.00999 µM): 109% | viability, T/C [1]: 105% | viability, T/C (second compound 0.0316 µM, first compound 0.0999 µM): 82.4% | viability, T/C [2]: 57.1% | viability, T/C (second compound 0.1 µM, first compound 0.000999 µM): 94% | viability, T/C (second compound 0.1 µM, first compound 0.00316 µM): 98.1% | viability, T/C (second compound 0.1 µM, first compound 0.00999 µM): 79.3% | viability, T/C [3]: 104% | viability, T/C (second compound 0.1 µM, first compound 0.0999 µM): 77% | viability, T/C [4]: 55.6% | viability, T/C (second compound 0.316 µM, first compound 0.000999 µM): 125% | viability, T/C (second compound 0.316 µM, first compound 0.00316 µM): 84.3% | viability, T/C (second compound 0.316 µM, first compound 0.00999 µM): 103% | viability, T/C [5]: 92.1% | viability, T/C (second compound 0.316 µM, first compound 0.0999 µM): 97.5% | viability, T/C [6]: 52.4% | viability, T/C (second compound 1 µM, first compound 0.000999 µM): 97.1% | viability, T/C (second compound 1 µM, first compound 0.00316 µM): 106% | viability, T/C (second compound 1 µM, first compound 0.00999 µM): 89.8% | viability, T/C [7]: 104% | viability, T/C (second compound 1 µM, first compound 0.0999 µM): 90.6% | viability, T/C [8]: 48.7% | viability, T/C (second compound 3.16 µM, first compound 0.000999 µM): 74.5% | viability, T/C (second compound 3.16 µM, first compound 0.00316 µM): 108% | viability, T/C (second compound 3.16 µM, first compound 0.00999 µM): 93.1% | viability, T/C [9]: 93.3% | viability, T/C (second compound 3.16 µM, first compound 0.0999 µM): 89.5% | viability, T/C [10]: 67.4% | viability, T/C (second compound 10 µM, first compound 0.000999 µM): 134% | viability, T/C (second compound 10 µM, first compound 0.00316 µM): 91.1% | viability, T/C (second compound 10 µM, first compound 0.00999 µM): 109% | viability, T/C [11]: 97.2% | viability, T/C (second compound 10 µM, first compound 0.0999 µM): 74.6% | viability, T/C [12]: 45.2%

COc1cccc2c1C(=O)c1c(O)c3c(c(O)c1C2=O)CC(O)(C(=O)CO)CC3OC1CC(N)C(O)C(C)O1 (stereo not drawn) + Cc1[nH]c2ccc(F)cc2c1-c1nc2c3cccnc3c3ncccc3c2[nH]1
IC50 (second compound 0.0316 µM): 9.8 µM | IC50 (second compound 0.1 µM): > 10 µM | IC50 (second compound 0.316 µM): > 10 µM | IC50 (second compound 1 µM): > 10 µM | IC50 (second compound 3.16 µM): > 10 µM | IC50 (second compound 10 µM): 9.33 µM | viability, T/C [1]: 120% | viability, T/C [13]: 114% | viability, T/C [2]: 99.5% | viability, T/C [14]: 83.7% | viability, T/C [15]: 76.3% | viability, T/C [16]: 46.1% | viability, T/C [3]: 118% | viability, T/C [17]: 96% | viability, T/C [4]: 86.7% | viability, T/C [18]: 66.3% | viability, T/C [19]: 105% | viability, T/C [20]: 56.1% | viability, T/C [5]: 96.5% | viability, T/C [21]: 105% | viability, T/C [6]: 92.6% | viability, T/C [22]: 94.1% | viability, T/C [23]: 73.2% | viability, T/C [24]: 56.1% | viability, T/C [7]: 122% | viability, T/C [25]: 91.4% | viability, T/C [8]: 72.3% | viability, T/C [26]: 80.1% | viability, T/C [27]: 81.3% | viability, T/C [28]: 53.8% | viability, T/C [9]: 120% | viability, T/C [29]: 73.8% | viability, T/C [10]: 71.4% | viability, T/C [30]: 88.7% | viability, T/C [31]: 74.6% | viability, T/C [32]: 46.9% | viability, T/C [11]: 97.2% | viability, T/C [33]: 81.8% | viability, T/C [12]: 89% | viability, T/C [34]: 98.4% | viability, T/C [35]: 103% | viability, T/C [36]: 47.1%

Nc1ccn(C2OC(CO)C(O)C2(F)F)c(=O)n1 (stereo not drawn) + Cc1[nH]c2ccc(F)cc2c1-c1nc2c3cccnc3c3ncccc3c2[nH]1
IC50 (second compound 0.0316 µM): < 0.0316 µM | IC50 (second compound 0.1 µM): < 0.0316 µM | IC50 (second compound 0.316 µM): < 0.0316 µM | IC50 (second compound 1 µM): < 0.0316 µM | IC50 (second compound 3.16 µM): < 0.0316 µM | IC50 (second compound 10 µM): < 0.0316 µM | viability, T/C [1]: 25.1% | viability, T/C [13]: 27.1% | viability, T/C [2]: 25.2% | viability, T/C [14]: 18.3% | viability, T/C [15]: 22.5% | viability, T/C [16]: 21.7% | viability, T/C [3]: 25.6% | viability, T/C [17]: 23.2% | viability, T/C [4]: 23.9% | viability, T/C [18]: 21.1% | viability, T/C [19]: 23% | viability, T/C [20]: 22.9% | viability, T/C [5]: 25.1% | viability, T/C [21]: 23.4% | viability, T/C [6]: 24% | viability, T/C [22]: 19.2% | viability, T/C [23]: 22.7% | viability, T/C [24]: 22.1% | viability, T/C [7]: 22.4% | viability, T/C [25]: 25.7% | viability, T/C [8]: 20.1% | viability, T/C [26]: 26.4% | viability, T/C [27]: 24.2% | viability, T/C [28]: 21.7% | viability, T/C [9]: 22.6% | viability, T/C [29]: 29.2% | viability, T/C [10]: 23.3% | viability, T/C [30]: 20.4% | viability, T/C [31]: 27% | viability, T/C [32]: 18.3% | viability, T/C [11]: 27.6% | viability, T/C [33]: 22.3% | viability, T/C [12]: 27% | viability, T/C [34]: 23.4% | viability, T/C [35]: 26.3% | viability, T/C [36]: 26.3%

O=c1[nH]cc(F)c(=O)[nH]1 + Cc1[nH]c2ccc(F)cc2c1-c1nc2c3cccnc3c3ncccc3c2[nH]1
IC50 (second compound 0.0316 µM): > 10 µM | IC50 (second compound 0.1 µM): > 10 µM | IC50 (second compound 0.316 µM): > 10 µM | IC50 (second compound 1 µM): > 10 µM | IC50 (second compound 3.16 µM): > 10 µM | IC50 (second compound 10 µM): > 10 µM | viability, T/C [1]: 85% | viability, T/C [13]: 77.8% | viability, T/C [2]: 113% | viability, T/C [14]: 105% | viability, T/C [15]: 80.4% | viability, T/C [16]: 55.3% | viability, T/C [3]: 117% | viability, T/C [17]: 87.6% | viability, T/C [4]: 102% | viability, T/C [18]: 99.6% | viability, T/C [19]: 69.2% | viability, T/C [20]: 66.4% | viability, T/C [5]: 119% | viability, T/C [21]: 83.7% | viability, T/C [6]: 103% | viability, T/C [22]: 94.3% | viability, T/C [23]: 95.5% | viability, T/C [24]: 64.8% | viability, T/C [7]: 87.2% | viability, T/C [25]: 104% | viability, T/C [8]: 95.8% | viability, T/C [26]: 71.6% | viability, T/C [27]: 82.1% | viability, T/C [28]: 53.9% | viability, T/C [9]: 90% | viability, T/C [29]: 84.6% | viability, T/C [10]: 98.8% | viability, T/C [30]: 96.8% | viability, T/C [31]: 76.2% | viability, T/C [32]: 59% | viability, T/C [11]: 104% | viability, T/C [33]: 109% | viability, T/C [12]: 93.6% | viability, T/C [34]: 92.6% | viability, T/C [35]: 103% | viability, T/C [36]: 61.6%
